Reference: PubChem BioAssay AID1845213 (Molecular Pharmacology Branch, DTP, NCI, 2023)
Values joined by “and” are separate entries in the source; they are usually repeats but may differ in a detail not shown here. Equal values may be shown once. Active and inactive are the calls of the source. The calls were made as follows: active = viability on the fitted dose curve at most 10% of control; inactive = the rest.

Tested on: NCI-H841 complex tumor spheroid viability
Assay: Anticancer human tumor NCI-H841 cell line growth inhibition;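 as to IC50: spheroids exposed to compounds for 7 days before readout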;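 as to viability, T/C: spheroids exposed to compounds for 7 days before readout; 100% = DMSO vehicle control wells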
Conditions: for viability, T/C: stronger effect = lower value
In short: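 Single agents and combinations were tested on spheroids built from tumor cells plus HUVEC and hMSC, at half-log dilutions starting at or near clinical Cmax, else 10 microM; final DMSO 0.25% (v/v).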

[1] = curve of first compound, second compound 30 pM
[2] = curve of first compound, second compound 94.9 pM
[3] = curve of first compound, second compound 0.0003 µM
[4] = curve of first compound, second compound 0.000949 µM
[5] = curve of first compound, second compound 0.003 µM
[6] = second compound 30 pM, first compound 0.0316 µM
[7] = second compound 30 pM, first compound 0.1 µM
[8] = second compound 30 pM, first compound 0.316 µM
[9] = second compound 30 pM, first compound 1 µM
[10] = second compound 30 pM, first compound 3.16 µM
[11] = second compound 30 pM, first compound 10 µM
[12] = second compound 94.9 pM, first compound 0.0316 µM
[13] = second compound 94.9 pM, first compound 0.1 µM
[14] = second compound 94.9 pM, first compound 0.316 µM
[15] = second compound 94.9 pM, first compound 1 µM
[16] = second compound 94.9 pM, first compound 3.16 µM
[17] = second compound 94.9 pM, first compound 10 µM
[18] = second compound 0.0003 µM, first compound 0.0316 µM
[19] = second compound 0.0003 µM, first compound 0.1 µM
[20] = second compound 0.0003 µM, first compound 0.316 µM
[21] = second compound 0.0003 µM, first compound 1 µM
[22] = second compound 0.0003 µM, first compound 3.16 µM
[23] = second compound 0.0003 µM, first compound 10 µM
[24] = second compound 0.000949 µM, first compound 0.0316 µM
[25] = second compound 0.000949 µM, first compound 0.1 µM
[26] = second compound 0.000949 µM, first compound 0.316 µM
[27] = second compound 0.000949 µM, first compound 1 µM
[28] = second compound 0.000949 µM, first compound 3.16 µM
[29] = second compound 0.000949 µM, first compound 10 µM
[30] = second compound 0.003 µM, first compound 0.0316 µM
[31] = second compound 0.003 µM, first compound 0.1 µM
[32] = second compound 0.003 µM, first compound 0.316 µM
[33] = second compound 0.003 µM, first compound 1 µM
[34] = second compound 0.003 µM, first compound 3.16 µM
[35] = second compound 0.003 µM, first compound 10 µM

COc1cc(C)[nH]c(=O)c1CN1CCc2c(Cl)cc(C(OC)C3COC3)c(Cl)c2C1=O (configuration not stated) + COc1cc2c(cc1O)CCNC21CSC2c3c(OC(C)=O)c(C)c4c(c3C(COC1=O)N1C(O)C3Cc5cc(C)c(OC)c(O)c5C(C21)N3C)OCO4
active: viability, T/C [22] 10.3% | viability, T/C [23] 5.83% | viability, T/C [24] 3.08% | viability, T/C [25] 2.58% | viability, T/C [26] 2.24% | viability, T/C [27] 1.23% | viability, T/C [28] 1.24% | viability, T/C [29] 0.9% | viability, T/C [30] 0.09% | viability, T/C [31] 0.09% | viability, T/C [32] 0.07% | viability, T/C [33] 0.1% | viability, T/C [34] 0.09% | viability, T/C [35] 0.17%
9900 nM: IC50 [1]
inactive: viability, T/C [6] 85.9% | viability, T/C [7] 76.3% | viability, T/C [8] 71.5% | viability, T/C [9] 67.3% | viability, T/C [10] 58.8% | viability, T/C [11] 48.7% | viability, T/C [12] 84.6% | viability, T/C [13] 67.9% | viability, T/C [14] 70.9% | viability, T/C [15] 56.1% | viability, T/C [16] 48.8% | viability, T/C [17] 39.1% | viability, T/C [18] 32.9% | viability, T/C [19] 27.3% | viability, T/C [20] 14.5% | viability, T/C [21] 13.7%
< 31.6 nM: IC50 [3] | IC50 [4] | IC50 [5]
2520 nM: IC50 [2]

COc1ccc([C@@H](O)c2cc(-c3ncnc4cc(N5CCOCC5)ccc34)c(F)cc2Cl)nn1 + COc1cc2c(cc1O)CCNC21CSC2c3c(OC(C)=O)c(C)c4c(c3C(COC1=O)N1C(O)C3Cc5cc(C)c(OC)c(O)c5C(C21)N3C)OCO4
< 31.6 nM: IC50 [3] | IC50 [4] | IC50 [5]
active: viability, T/C [11] 4.01% | viability, T/C [17] 1.62% | viability, T/C [21] 4.22% | viability, T/C [22] 0.62% | viability, T/C [23] 0.12% | viability, T/C [24] 2.69% | viability, T/C [25] 2.87% | viability, T/C [26] 1.76% | viability, T/C [27] 0.09% | viability, T/C [28] 0.02% | viability, T/C [29] 0.14% | viability, T/C [30] 0.13% | viability, T/C [31] 0.12% | viability, T/C [32] 0.14% | viability, T/C [33] 0.16% | viability, T/C [34] 0.19% | viability, T/C [35] 0.27%
1040 nM: IC50 [2]
inactive: viability, T/C [6] 102% | viability, T/C [7] 99.6% | viability, T/C [8] 96% | viability, T/C [9] 86.7% | viability, T/C [10] 47.5% | viability, T/C [12] 99.4% | viability, T/C [13] 94.5% | viability, T/C [14] 86.4% | viability, T/C [15] 50.3% | viability, T/C [16] 16.4% | viability, T/C [18] 31.4% | viability, T/C [19] 34.4% | viability, T/C [20] 16.9%
2950 nM: IC50 [1]

O=C(c1cc(Cc2n[nH]c(=O)c3ccccc23)ccc1F)N1CCN(C(=O)C2CC2)CC1
active: viability, T/C (compound 30 µM) 8.7% and 7.95% and 1.92%
2580 nM and 6160 nM and 5100 nM: IC50 (curve of compound)
inactive: viability, T/C (compound 0.0949 µM) 101% and 95.3% and 103% | outcome (compound 0.3 µM) | viability, T/C (compound 0.3 µM) 93.6% and 103% | viability, T/C (compound 0.949 µM) 94.8% and 89.4% and 99.4% | viability, T/C (compound 3 µM) 43.4% and 81.5% and 88.2%
